In US20210214358A1, “CDK4/6 INHIBITOR AND PHARMACEUTICALLY ACCEPTABLE SALT AND POLYMORPH THEREOF AND USE THEREOF” (SHANGHAI HAIYAN PHARMACEUTICAL TECHNOLOGY CO., LTD., priority 2018, published 2021):
Values after ≈ are worked out from the molar mass of the structure shown. Read-outs that look alike come from different tables or passages of the source.

Experiments:
CDK1 = biological target: T1, CDK1 (Homo sapiens, UniProt P06493); assay: Kinase test in vitro (LANCE Ultra, Ulight-4EBP1); type: biochemical
T1 construct: purchased BPS
T1 sequence (P06493 whole entry): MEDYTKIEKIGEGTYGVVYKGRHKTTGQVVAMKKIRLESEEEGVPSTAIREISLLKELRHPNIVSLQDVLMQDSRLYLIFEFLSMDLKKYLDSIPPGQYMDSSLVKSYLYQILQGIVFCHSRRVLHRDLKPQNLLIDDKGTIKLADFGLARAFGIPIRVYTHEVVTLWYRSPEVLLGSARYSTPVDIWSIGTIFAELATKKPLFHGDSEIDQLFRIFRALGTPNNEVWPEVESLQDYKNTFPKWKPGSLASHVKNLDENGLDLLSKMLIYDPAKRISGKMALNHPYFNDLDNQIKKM
T1 sequence (P14635 whole entry partner): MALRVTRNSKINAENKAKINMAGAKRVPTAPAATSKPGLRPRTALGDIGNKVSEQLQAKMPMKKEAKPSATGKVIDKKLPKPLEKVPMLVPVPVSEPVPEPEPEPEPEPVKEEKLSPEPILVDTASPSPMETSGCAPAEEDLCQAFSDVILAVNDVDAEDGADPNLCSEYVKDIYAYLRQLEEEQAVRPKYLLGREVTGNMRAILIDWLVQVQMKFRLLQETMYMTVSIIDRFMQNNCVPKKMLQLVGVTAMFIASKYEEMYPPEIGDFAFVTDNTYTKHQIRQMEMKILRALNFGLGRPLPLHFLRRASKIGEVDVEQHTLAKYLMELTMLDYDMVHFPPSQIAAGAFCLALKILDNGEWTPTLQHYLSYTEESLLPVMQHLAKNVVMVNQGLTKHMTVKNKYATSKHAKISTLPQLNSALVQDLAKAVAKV
Source text: (§1) Recombinant CDK1, CCNB1 and CDK9, and CCNT were purchased from BPS; CDK2, CCNA1, CDK4, CCND1 and CDK6, and CCND1 were purchased from Invitrogen; CDK4, CycD3 and CDK6, and CycD3 were purchased from Carna. Adenosine triphosphate (ATP) was purchased from Life tech. Substrate Ulight-4EBP1 and the corresponding detection antibody were purchased from Perkinelmer. LANCE Ultra system from Perkinelmer is used as the detection system.
(§2) In the kinase test, a compound to be tested was 1:3 diluted for 8 gradient points and added into a reaction plate, and then an appropriate amount of recombinase was added. A buffer [50 mM HEPES pH7.5, 10 mM MgCl2, 3 mM MnCl2, 1 mM EGTA, 0.01% Tween-20, 1 mM TCEP] containing ATP, Ulight-4EBP1 premix at a predetermined concentration was subsequently added, and the kinase reaction began at room temperature. A test solution pre-mixed with 10 mM EDTA and detection antibody was added after a suitable reaction time, and then the fluorescence value was read on Tecan infinite pro after reacting for 1 hour at room temperature. The IC50 was calculated using a four-factor model fitting in a XLfit software.

CDK2 = biological target: T2, CDK2 (Homo sapiens, UniProt P24941); assay: Kinase test in vitro (LANCE Ultra, Ulight-4EBP1); type: biochemical
T2 construct: purchased Invitrogen
Source text: as §1, §2

CDK4 = biological target: T3, CDK4 (Homo sapiens, UniProt P11802); assay: Kinase test in vitro (LANCE Ultra, Ulight-4EBP1); type: biochemical
T3 construct: purchased Invitrogen or Carna
T3 sequence (P11802 whole entry): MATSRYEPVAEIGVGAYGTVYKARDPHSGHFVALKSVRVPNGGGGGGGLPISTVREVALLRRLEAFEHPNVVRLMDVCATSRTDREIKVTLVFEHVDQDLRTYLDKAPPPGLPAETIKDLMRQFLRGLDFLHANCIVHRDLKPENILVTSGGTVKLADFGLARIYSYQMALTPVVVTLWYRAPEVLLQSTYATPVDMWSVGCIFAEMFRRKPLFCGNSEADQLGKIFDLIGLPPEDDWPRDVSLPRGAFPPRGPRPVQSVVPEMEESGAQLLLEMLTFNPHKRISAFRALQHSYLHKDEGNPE
T3 sequence (P24385 whole entry partner): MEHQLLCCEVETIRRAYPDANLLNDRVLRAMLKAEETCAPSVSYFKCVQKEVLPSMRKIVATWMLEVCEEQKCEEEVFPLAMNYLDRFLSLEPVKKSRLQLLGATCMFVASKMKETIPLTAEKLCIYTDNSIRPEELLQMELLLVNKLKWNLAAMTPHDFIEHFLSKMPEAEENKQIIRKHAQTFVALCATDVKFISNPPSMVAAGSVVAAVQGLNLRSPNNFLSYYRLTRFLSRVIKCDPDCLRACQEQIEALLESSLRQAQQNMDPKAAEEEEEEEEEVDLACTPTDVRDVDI
Source text: as §1, §2

CDK6 = biological target: T4, CDK6 (Homo sapiens, UniProt Q00534); assay: Kinase test in vitro (LANCE Ultra, Ulight-4EBP1); type: biochemical
T4 construct: purchased Invitrogen or Carna
T4 sequence (Q00534 whole entry): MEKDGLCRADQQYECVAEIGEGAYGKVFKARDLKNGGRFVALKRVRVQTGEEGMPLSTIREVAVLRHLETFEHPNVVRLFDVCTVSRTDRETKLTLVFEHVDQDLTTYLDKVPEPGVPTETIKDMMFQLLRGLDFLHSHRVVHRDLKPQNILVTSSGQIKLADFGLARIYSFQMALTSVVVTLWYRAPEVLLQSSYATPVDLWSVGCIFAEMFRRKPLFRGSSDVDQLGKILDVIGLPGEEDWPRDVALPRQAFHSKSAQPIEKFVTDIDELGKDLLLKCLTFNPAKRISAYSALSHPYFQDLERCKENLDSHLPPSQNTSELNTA
T4 sequence (P24385 whole entry partner): as the sequence (P24385 whole entry partner) above
Source text: as §1, §2

Solubility experiment = type: physicochemical; conditions: for solubility in aqueous medium (summary): aqueous media of Table 6
[1] = Hygroscopicity test (DVS); type: physicochemical; conditions: for hygroscopicity (in words): 80% RH at 25° C.; for hygroscopic weight gain: humidity increases to 80% RH at 25° C.
Experimental: The Dynamic Vapor Sorption (DVS) curve: acquired on the DVS Intrinsic of Surface Measurement Systems. The relative humidity at […] is corrected with the deliquescence points of LiCl, Mg (NO3)2 and KCl.

[2] = Stability experiment: content and related substance by HPLC; type: physicochemical
Experimental: (§3) 1. Stability experiment of crystal form A and crystal form B-1 • (A) An appropriate amount of samples were weighed respectively and placed open at room temperature and under accelerated conditions (40° C./75% RH), on day 0, 7, 14, and 28 • (B) Crystal form A was placed in an oven at 60° C., on day 14, 32.
(§4) The content and related substance changes were detected by HPLC, and XRD was measured at the same time to investigate stability of the crystal forms.

[3] = Stability experiment: crystal form by XRD; type: physicochemical
Experimental: as §3, §4

[4] = Thermogravimetric analysis; type: physicochemical; conditions: under 50° C.-90° C.
Source text: TGA and DSC pattern: TGA and DSC pattern were collected on TA Q500/5000 thermogravimetric analyzer and TA Q200/2000 differential scanning calorimeter respectively.

[5] = Acetone, calculated for crystal form I
[6] = Acetonitrile, calculated for crystal form I
[7] = Ethanol, calculated for crystal form I
[8] = Ethyl acetate, calculated for crystal form I
[9] = H2O, calculated for crystal form I
[10] = Isopropanol, calculated for crystal form I
[11] = Methanol, calculated for crystal form I
[12] = Tetrahydrofuran, calculated for crystal form I
[13] = medium pH4.5, calculated for crystal form I
[14] = medium pH6.8, calculated for crystal form I
[15] = medium pH7.4, calculated for crystal form I
[16] = accelerated conditions 40° C./75% RH, open, on day 7
[17] = accelerated conditions 40° C./75% RH, open, on day 14
[18] = accelerated conditions 40° C./75% RH, open, on day 28
[19] = accelerated conditions 40° C./75% RH, open, on day 28, footnote: content obviously higher, measurement has errors
[20] = room temperature and accelerated conditions (40° C./75% RH), up to 28 days
[21] = room temperature, open, on day 7
[22] = room temperature, open, on day 14
[23] = room temperature, open, on day 28
[24] = room temperature, open, on day 28, footnote: content obviously higher, measurement has errors
[25] = accelerated conditions for 28 days
[26] = 0.1 M HCl, calculated for crystal form I

SMILES | solubility ranking of the crystal forms (in words) (Solubility experiment) | Solubility (Solubility experiment; [5]) [mg/mL] | Solubility (Solubility experiment; [6]) [mg/mL] | Solubility (Solubility experiment; [7]) [mg/mL] | Solubility (Solubility experiment; [8]) [mg/mL] | Solubility (Solubility experiment; [9]) [mg/mL] | Solubility (Solubility experiment; [10]) [mg/mL] | Solubility (Solubility experiment; [11]) [mg/mL] | Solubility (Solubility experiment; [12]) [mg/mL] | Solubility (Solubility experiment; [13]) [mg/mL] | Solubility (Solubility experiment; [14]) [mg/mL] | Solubility (Solubility experiment; [15]) [mg/mL] | hygroscopicity (in words) [1] | hygroscopic weight gain [1] [%] | Content [2, 16] [%] | Impurity peak [2, 16] | Content [2, 17] [%] | Impurity peak [2, 17] | Impurity peak [2, 18] | Solubility (Solubility experiment; [26]) [mg/mL] | also measured
Cc1c2c(nn1C)CCc1cnc(Nc3ccc(N4CCN(C)CC4)cc3)nc1-2 [compound 1, reference compound] |  |  |  |  |  |  |  |  |  |  |  |  |  |  |  |  |  |  |  |  | IC50 (CDK1): 93 nM; inhibitory activity against CDK1 (in words) (CDK1): strong inhibitory activity; IC50 (CDK2): 23 nM; inhibitory activity against CDK2 (in words) (CDK2): strong inhibitory activity; IC50 (CDK4): 8 nM; inhibitory activity against CDK4 (in words) (CDK4): strong inhibitory activity; IC50 (CDK6): 53 nM; inhibitory activity against CDK6 (in words) (CDK6): strong inhibitory activity
CCN1CCN(Cc2ccc(Nc3ncc4c(n3)-c3c(nc(C5CC5)n3C(C)C)C4)nc2)CC1 [Crystal form I] | the lowest solubility | >5 | >1 | >50 | >10 | 0.36 (≈ 0.785 mM) | >20 | >100 | >100 | 9.66 (≈ 21.1 mM) | 2.85 (≈ 6.21 mM) | 1.08 (≈ 2.35 mM) | has hygroscopicity | 8.84 |  |  |  |  |  |  | Solubility (Solubility experiment; 0.1 M HCl, simulated gastric fluid, thermodynamic from solid, 0.1 M HCl, calculated for crystal form I, read-out: Solubility): 34.7 mg/mL (≈ 75.7 mM); Solubility (Solubility experiment; 50% acetonitrile, aqueous with cosolvent or surfactant or cyclodextrin, thermodynamic from solid, 50% Acetonitrile, calculated for crystal form I, read-out: Solubility): > 25 mg/mL; Solubility (Solubility experiment; dimethyl sulfoxide, organic solvent or mixture, thermodynamic from solid, Dimethyl sulfoxide, calculated for crystal form I, read-out: Solubility): > 6.6 mg/mL; Solubility (Solubility experiment; methyl tert-butyl ether, organic solvent or mixture, thermodynamic from solid, Methyl tert-butyl ether, calculated for crystal form I, read-out: Solubility): > 2 mg/mL; Solubility (Solubility experiment; n-heptane, organic solvent or mixture, thermodynamic from solid, N-heptane, calculated for crystal form I, read-out: Solubility): < 2 mg/mL
CCN1CCN(Cc2ccc(Nc3ncc4c(n3)-c3c(nc(C5CC5)n3C(C)C)C4)nc2)CC1 [Crystal form A] |  | 0.23 (≈ 0.502 mM) | 0.22 (≈ 0.48 mM) | 6.97 (≈ 15.2 mM) | 0.03 (≈ 0.0654 mM) | 11.59 (≈ 25.3 mM) | 0.26 (≈ 0.567 mM) | 41.04 (≈ 89.5 mM) | 0.15 (≈ 0.327 mM) | 14.30 (≈ 31.2 mM) | 19.66 (≈ 42.9 mM) | 17.86 (≈ 38.9 mM) | slightly hygroscopic | 0.613 | 100.97 | none | 104.46 | none | none | >58.10 | chemical stability (in words) ([2]; 60° C., 14 and 32 days): chemical properties are stable; Content [2, 19]: 113.75%; Content ([2]; on day 0): 103.14%; Impurity peak ([2]; on day 0): none; Content ([2]; oven at 60° C., on day 14): 106.2%; Impurity peak ([2]; oven at 60° C., on day 14): none; Content ([2]; oven at 60° C., on day 32): 104.5%; Impurity peak ([2]; oven at 60° C., on day 32): none; chemical stability (in words) [2, 20]: chemical properties are stable; Content [2, 21]: 103.82%; Impurity peak [2, 21]: none; Content [2, 22]: 104.20%; Impurity peak [2, 22]: none; Impurity peak [2, 23]: none; Content [2, 24]: 116.27%; crystal form stability by XRD (in words) [3, 25]: crystal form is stable; crystal form stability by XRD (in words) ([3]; high temperature of 60° C. for 14 days and 32 days): not transformed; solubility in aqueous medium (summary) (Solubility experiment): more than 11 mg/ml
CCN1CCN(Cc2ccc(Nc3ncc4c(n3)-c3c(nc(C5CC5)n3C(C)C)C4)nc2)CC1 [Crystal form B-1] |  | >41.11 | 0.28 (≈ 0.611 mM) | 19.59 (≈ 42.7 mM) | 0.02 (≈ 0.0436 mM) | >40.85 | 0.58 (≈ 1.26 mM) | >45.19 | 0.39 (≈ 0.85 mM) | >29.40 | >27.40 | >25.65 | has hygroscopicity | 6.88 | 94.36 | none | 95.19 | none | none | >40.10 | Content [2, 19]: 110.05%; Content ([2]; on day 0): 94.43%; Impurity peak ([2]; on day 0): none; chemical stability (in words) [2, 20]: chemical properties are stable; Content [2, 21]: 96.50%; Impurity peak [2, 21]: none; Content [2, 22]: 96.45%; Impurity peak [2, 22]: none; Impurity peak [2, 23]: none; Content [2, 24]: 107.12%; crystal form stability by XRD (in words) [3, 25]: crystal form is stable; solubility in aqueous medium (summary) (Solubility experiment): more than 25 mg/ml; weight loss (TGA) [4]: about 7.4%
CCN1CCN(Cc2ccc(Nc3ncc4c(n3)-c3c(nc(C5CC5)n3C(C)C)C4)nc2)CC1 [Crystal form K-1] | the best solubility | 11.47 (≈ 25 mM) | >16.64 | >41.86 | 11.48 (≈ 25 mM) | >38.91 | >42.89 | >30.41 | 39.09 (≈ 85.2 mM) | >35.09 | >33.57 | >38.78 | very hygroscopic | 30.74 |  |  |  |  |  | >44.74 | Solubility (Solubility experiment; thermodynamic from solid, all solvents and media of Table 6, read-out: solubility in organic solvents and aqueous medium (summary)): 11 to 45 mg/mL (≈ 24 to 98.1 mM)
